Measured values published in patent US20220054494A1, “METHODS FOR TREATING BLADDER AND URETHRA DYSFUNCTION AND DISEASE” (University of Pittsburgh - Of the Commonwealth System of …, priority 2019, published 2022).
“Also recorded” adds a separate entry of the source.

How the values were obtained:
Assay type in all cases: in vivo, rat
mitofusin 2 (MFN2) = experiment: Western immunoblotting, mitofusin 2; details: aged rats; oral 8-AG 5 mg/kg/day, 6 weeks
Method: (§1) Western immunoblotting: One half of each bladder preparation was homogenized using Lysing Matrix D in a FastPrep 24 instrument (MP Biomedicals, Solon, Ohio) in HBSS (5 mM KCl, 0.3 mM KH2PO4, 138 mM NaCl, 4 mM NaHO3, 0.3 mM Na2HCO3, 0.3 mM Na2HPO4, 5.6 mM glucose and 10 mM Hepes, pH 7.4) containing complete protease inhibitor cocktail (1 tablet/10 ml, ROCHE®, Indianapolis, Ind.)) and phosphatase inhibitor cocktail (SIGMA®, 1:100). After centrifugation (13000 rpm; 15 min at 4° C.), the membrane protein fraction was prepared by suspending the membrane pellets in lysis buffer containing 0.3 M NaCl, 50 mM Tris-HCl (pH 7.6) and 0.5% Triton X-100 and the same concentration of protease inhibitors as above. The suspensions were incubated on ice and centrifuged (13000 rpm; 15 min at 4° C.). The protein concentrations of the combined supernatants were determined using the PIERCE® BCA protein assay (THERMO SCIENTIFIC®, Rockford, Ill.). […] As a loading control, total protein per sample was determined using Bio-Rad® Stain Free SDS-PAGE gel technology. UV-activated protein fluorescence was imaged on a CHEMIDOC® MP (BIO-RAD®). […] The volume (intensity) of each protein species was determined and normalized to total protein using Image Lab software (BIO-RAD®).

[1] = test system: dynamin-related protein (DRP-1); experiment: Western immunoblotting, DRP-1; details: aged rats; oral 8-AG 5 mg/kg/day, 6 weeks
Method: as §1

cleaved caspase 3 = experiment: Western immunoblotting, cleaved caspase 3; details: aged rats; oral 8-AG 5 mg/kg/day, 6 weeks
Method: Western immunoblotting: One half of each bladder preparation was homogenized using Lysing Matrix D in a FastPrep 24 instrument (MP Biomedicals, Solon, Ohio) in HBSS (5 mM KCl, 0.3 mM KH2PO4, 138 mM NaCl, 4 mM NaHO3, 0.3 mM Na2HCO3, 0.3 mM Na2HPO4, 5.6 mM glucose and 10 mM Hepes, pH 7.4) containing complete protease inhibitor cocktail (1 tablet/10 ml, ROCHE®, Indianapolis, Ind.)) and phosphatase inhibitor cocktail (SIGMA®, 1:100). After centrifugation (13000 rpm; 15 min at 4° C.), the membrane protein fraction was prepared by suspending the membrane pellets in lysis buffer containing 0.3 M NaCl, 50 mM Tris-HCl (pH 7.6) and 0.5% Triton X-100 and the same concentration of protease inhibitors as above. The suspensions were incubated on ice and centrifuged (13000 rpm; 15 min at 4° C.). The protein concentrations of the combined supernatants were determined using the PIERCE® BCA protein assay (THERMO SCIENTIFIC®, Rockford, Ill.). After denaturation (100° C. for 5 min) in the presence of Laemmli sample buffer, lysate from each sample was separated on a 4-15% TGX Stain-Free SDS-PAGE gel (BIO-RAD® Laboratories, Hercules, Calif.). As a loading control, total protein per sample was determined using Bio-Rad® Stain Free SDS-PAGE gel technology. UV-activated protein fluorescence was imaged on a CHEMIDOC® MP (BIO-RAD®). […] The volume (intensity) of each protein species was determined and normalized to total protein using Image Lab software (BIO-RAD®).

IL-1beta = experiment: RT-qPCR of bladder IL-1beta mRNA in CYP cystitis model; details: CYP (75 mg/kg i.p.) female Sprague Dawley rats; oral 8-AG 5 mg/kg/day starting one week prior to CYP
Method: Animals: Female Sprague Dawley rats were employed in this example (Charles River; Wilmington, Mass.). Three groups of animals were included. Group 1 received an i.p. injection of saline and was used as a control; groups 2 and 3 received an i.p. injection of cyclophosphamide (CYP, SIGMA-ALDRICH®, St Louis, Mo., day 0, 3, 6, sacrifice day 8, 75 mg/kg, i.p.) with group 3 treated with oral 8-AG (5 mg/kg/day; starting one week prior to CYP). CYP induced bladder inflammation and is a well-established pre-clinical model for BPS/IC.
RT-qPCR: Total RNA was isolated from bladders using TRIZOL® Reagent (THERMO FISHER SCIENTIFIC®; Waltham, Mass.) according to the manufacturer's instructions. The cDNA was synthesized using ISCRIPT™ cDNA synthesis kit (BIO-RAD®). qPCR analysis was performed using Power SYBR™ Green PCR Master Mix (THERMO FISHER SCIENTIFIC®) in the APPLIED BIOSYSTEMS® QUANTSTUDIO™ 3 Real-Time PCR System (THERMO FISHER SCIENTIFIC®). The primers used were as follows: for IL-1beta, 5′-[…]-3′ (forward; SEQ ID NO: 1) and 5′-[…]-3′ (reverse; SEQ ID NO: 2); for MCP-1, 5′-[…]-3′ (forward; SEQ ID NO: 3) and 5′-[…]-3′ (reverse; SEQ ID NO: 4); for β-actin, 5′-ACTCTTCCAGCCTTCCTTC-3′ (forward; SEQ ID NO: 5) and 5′-[…]-3′ (reverse; SEQ ID NO: 6). The threshold cycle (Ct) for target was subtracted from Ct for β-actin to give ΔCt. Results are expressed as 2AC.

With `Nc1nc2[nH]c(N)nc2c(=O)[nH]1` [8-AG, 8-Aminoguanine] the “mitofusin 2 (MFN2) in bladder mucosa” value (mitofusin 2 (MFN2)) was “reversed or restored to levels similar to the younger state; also recorded: restored changes similar to a younger state”, the “DRP-1 in bladder mucosa” value [1] was “reversed or restored to levels similar to the younger state; also recorded: restored changes similar to a younger state” and the “EUS cleaved caspase 3” value (cleaved caspase 3) was “restored to a younger state”. For the same compound, the “cleaved caspase 3 in bladder mucosa” value (cleaved caspase 3) was “reversed or restored to levels similar to the younger state; also recorded: restored changes similar to a younger state”, the “cleaved caspase 3 in detrusor smooth muscle” value (cleaved caspase 3) was “levels similar to the younger state; also recorded: restored these biomarkers to that of a younger state” and the “IL-1beta mRNA expression in bladder” value (IL-1beta) was “suppressed; also recorded: near the detection limit; also recorded: nearly abolished”.
